Laboratory results: patent US8771665B2 (Cocrystal Discovery, Inc., priority 2010, dated 2014)

molecular target: T1, HCV1b NS5B polymerase delta 21 (Hepatitis C virus genotype 1b, UniProt P26663); test: RNA-Dependent RNA HCV NS5B (Polymerase) Assay and IC50 Determination; format: biochemical
T1 construct: purified HCV1b NS5B polymerase delta 21
Procedure, shortened: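 Purified NS5B Δ21 (0.6 μg) with polyA:U16 template, 10 μM UTP plus α-32P UTP in Tris-HCl pH 7.5, 5 mM MgCl2, 0.5% Triton X-100, 60 min at 23°C with varied compound concentrations. Radiolabelled RNA captured on filters, quantified by phosphorimaging; IC50 from triplicate assays.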

T1 sequence (P26663 2420-2989): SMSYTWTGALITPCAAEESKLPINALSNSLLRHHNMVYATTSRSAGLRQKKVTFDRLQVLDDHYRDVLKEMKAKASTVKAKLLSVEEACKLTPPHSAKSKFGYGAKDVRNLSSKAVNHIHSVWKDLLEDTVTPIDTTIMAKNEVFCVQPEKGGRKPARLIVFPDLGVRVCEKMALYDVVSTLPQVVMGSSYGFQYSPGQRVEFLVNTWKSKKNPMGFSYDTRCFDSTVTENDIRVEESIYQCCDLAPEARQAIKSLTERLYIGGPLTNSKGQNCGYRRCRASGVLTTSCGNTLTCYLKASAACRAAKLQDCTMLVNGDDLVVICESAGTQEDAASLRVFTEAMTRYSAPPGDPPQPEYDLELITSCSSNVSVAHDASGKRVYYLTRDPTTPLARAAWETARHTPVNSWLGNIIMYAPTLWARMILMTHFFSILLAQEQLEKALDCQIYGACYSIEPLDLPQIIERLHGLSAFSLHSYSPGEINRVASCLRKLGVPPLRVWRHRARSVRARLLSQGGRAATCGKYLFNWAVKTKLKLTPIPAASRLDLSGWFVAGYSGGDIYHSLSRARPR

| Structure (SMILES) | IC50 |
| --- | --- |
| CC1CCC(C2=C(c3cc(C#CC(C)(C)C)sc3C(=O)O)CN(C(=O)CO)CC2)CC1 (centres unmarked) [Example 170, 5-(3,3-Dimethyl-but-1-ynyl)-3-[1-(2-hydroxy-acetyl)-4-(4-methyl-cyclohexyl)-1,2,5,6-tetrahydro-pyridin-3-yl]-thiophene-2-carboxylic acid] | 3 to 10 µM |
| CC1CCC(C2=C(c3cc(-c4ccccc4)sc3C(=O)O)CCN(Cc3ccc4ccccc4n3)C2)CC1 (centres unmarked) [Example 143, 3-[5-(4-Methyl-cyclohexyl)-1-quinolin-2-ylmethyl-1,2,3,6-tetrahydro-pyridin-4-yl]-5-phenyl-thiophene-2-carboxylic acid] | > 10 µM |
| CC1CCC(C2=C(c3cc(-c4ccccc4)sc3C(=O)O)CCN(Cc3ccncc3)C2)CC1 (centres unmarked) [Example 090, 3-[5-(4-Methyl-cyclohexyl)-1-pyridin-4-ylmethyl-1,2,3,6-tetrahydro-pyridin-4-yl]-5-phenyl-thiophene-2-carboxylic acid] | < 3 µM |
| CC1CCC(C2=C(c3cc(-c4ccccc4)sc3C(=O)O)CCN(CCCCc3ccccc3)C2)CC1 (centres unmarked) [Example 080, 3-[5-(4-Methyl-cyclohexyl)-1-(4-phenyl-butyl)-1,2,3,6-tetrahydro-pyridin-4-yl]-5-phenyl-thiophene-2-carboxylic acid] | > 10 µM |
| CC1CCC(C2=C(c3cc(-c4ccc(NC(=O)c5ccccn5)cc4)sc3C(=O)O)CCN(C)C2)CC1 (centres unmarked) [Example 042, 3-[1-Methyl-5-(4-methyl-cyclohexyl)-1,2,3,6-tetrahydro-pyridin-4-yl]-5-{4-[(pyridine-2-carbonyl)-amino]-phenyl}-thiophene-2-carboxylic acid] | < 3 µM |
| CC1CCC(C2=C(c3cc(C#CC4CCCC4)sc3C(=O)O)CN(C)CC2)CC1 (centres unmarked) [Example 176, 5-Cyclopentylethynyl-3-[1-methyl-4-(4-methyl-cyclohexyl)-1,2,5,6-tetrahydro-pyridin-3-yl]-thiophene-2-carboxylic acid] | < 3 µM |
| CC1CCC(C2=C(c3cc(-c4ccc(NC(=O)OC(C)(C)C)cc4)sc3C(=O)O)CCN(C)C2)CC1 (centres unmarked) [Example 012, 5-(4-tert-Butoxycarbonylamino-phenyl)-3-[1-methyl-5-(4-methyl-cyclohexyl)-1,2,3,6-tetrahydro-pyridin-4-yl]-thiophene-2-carboxylic acid] | > 10 µM |
| CCN1CCC(c2cc(-c3cccc(NC(=O)c4cccs4)c3)sc2C(=O)O)=C(C2CCC(C)CC2)C1 (centres unmarked) [Example 027, 3-[1-Ethyl-5-(4-methyl-cyclohexyl)-1,2,3,6-tetrahydro-pyridin-4-yl]-5-{3-[(thiophene-2-carbonyl)-amino]-phenyl}-thiophene-2-carboxylic acid] | > 10 µM |
| CC1CCC(C2=C(c3cc(-c4ccccc4)sc3C(=O)O)CCN(C(=O)c3ccccc3)C2)CC1 (centres unmarked) [Example 072, 3-[1-Benzoyl-5-(4-methyl-cyclohexyl)-1,2,3,6-tetrahydro-pyridin-4-yl]-5-phenyl-thiophene-2-carboxylic acid] | > 10 µM |
| CCN1CCC(c2cc(-c3ccc(NC(=O)c4cocn4)cc3)sc2C(=O)O)=C(C2CCC(C)CC2)C1 (centres unmarked) [Example 052, 3-[1-Ethyl-5-(4-methyl-cyclohexyl)-1,2,3,6-tetrahydro-pyridin-4-yl]-5-{4-[(oxazole-4-carbonyl)-amino]-phenyl}-thiophene-2-carboxylic acid] | < 3 µM |
| COC(=O)c1sc(-c2ccc(NC(=O)c3cscn3)cc2)cc1C1=C(C2CCC(C)CC2)CN(C)CC1 (centres unmarked) [Example 013A] | < 3 µM |
| CCCC(=O)OCOC(=O)c1sc(-c2ccc(NC(=O)c3cscn3)cc2)cc1C1=C(C2CCC(C)CC2)CN(C)CC1 (centres unmarked) [Example 105, 3-[1-Methyl-5-(4-methyl-cyclohexyl)-1,2,3,6-tetrahydro-pyridin-4-yl]-5-{4-[(thiazole-4-carbonyl)-amino]-phenyl}-thiophene-2-carboxylic acid butyryloxymethyl ester] | 3 to 10 µM |
| CC1CCC(C2=C(c3cc(-c4ccc(NC(=O)c5cscn5)cc4)sc3C(=O)O)CCNC2)CC1 (centres unmarked) [Example 159, 3-[5-(4-Methyl-cyclohexyl)-1,2,3,6-tetrahydro-pyridin-4-yl]-5-{4-[(thiazole-4-carbonyl)-amino]-phenyl}-thiophene-2-carboxylic acid] | < 3 µM |
| CN1CCC(c2cc(C#CC(C)(C)C)sc2C(=O)O)=C([C@H]2CC[C@H](C)CC2)C1 [Example 046, 5-(3,3-Dimethyl-but-1-ynyl)-3-[1-methyl-5-(4-methyl-cyclohexyl)-1,2,3,6-tetrahydro-pyridin-4-yl]-thiophene-2-carboxylic acid] | < 3 µM |
| CC1CCC(C2=C(c3cc(-c4ccc(-c5nc6cccnc6[nH]5)cc4)sc3C(=O)O)CCN(C)C2)CC1 (centres unmarked) [Example 140, 5-[4-(3H-Imidazol-[4,5-b]pyridin-2-yl)-phenyl]-3-[1-methyl-5-(4-methyl-cyclohexyl)-1,2,3,6-tetrahydro-pyridin-4-yl]-thiophene-2-carboxylic acid] | 3 to 10 µM |
| CCN1CCC(c2cc(-c3cccc(NC(=O)c4cscn4)c3)sc2C(=O)O)=C(C2CCC(C)CC2)C1 (centres unmarked) [Example 025, 3-[1-Ethyl-5-(4-methyl-cyclohexyl)-1,2,3,6-tetrahydro-pyridin-4-yl]-5-{3-[(thiazole-4-carbonyl)-amino]-phenyl}-thiophene-2-carboxylic acid] | > 10 µM |
| CCN1CCC(c2cc(-c3ccc(NC(=O)c4cncs4)cc3)sc2C(=O)O)=C(C2CCC(C)CC2)C1 (centres unmarked) [Example 050, 3-[1-Ethyl-5-(4-methyl-cyclohexyl)-1,2,3,6-tetrahydro-pyridin-4-yl]-5-{4-[(thiazole-5-carbonyl)-amino]-phenyl}-thiophene-2-carboxylic acid] | 3 to 10 µM |
| CCN1CCC(c2cc(-c3ccc(NC(=O)c4ccsc4)cc3)sc2C(=O)O)=C(C2CCC(C)CC2)C1 (centres unmarked) [Example 049, 3-[1-Ethyl-5-(4-methyl-cyclohexyl)-1,2,3,6-tetrahydro-pyridin-4-yl]-5-{4-[(thiophene-3-carbonyl)-amino]-phenyl}-thiophene-2-carboxylic acid] | < 3 µM |
| CC1CCC(C2=C(c3cc(-c4ccccc4)sc3C(=O)O)CCN(C(=O)OCc3ccccc3)C2)CC1 (centres unmarked) [Example 073] | > 10 µM |
| CC1CCC(C2=C(c3cc(-c4ccccc4)sc3C(=O)O)CCN(C(=O)c3nn(C)c4ccccc34)C2)CC1 (centres unmarked) [Example 099, 3-[5-(4-Methyl-cyclohexyl)-1-(1-methyl-1H-indazole-3-carbonyl)-1,2,3,6-tetrahydro-pyridin-4-yl]-5-phenyl-thiophene-2-carboxylic acid] | 3 to 10 µM |
| CC1CCC(C2=C(c3cc(C#CC4CC4)sc3C(=O)O)CCN(CCO)C2)CC1 (centres unmarked) [Example 138, 5-Cyclopropylethynyl-3-[1-(2-hydroxy-ethyl)-5-(4-methyl-cyclohexyl)-1,2,3,6-tetrahydro-pyridin-4-yl]-thiophene-2-carboxylic acid] | < 3 µM |
| CC1CCC(C2=C(c3cc(-c4ccccc4)sc3C(=O)O)CCNC2)CC1 (centres unmarked) [Example 040, 3-[5-(4-Methyl-cyclohexyl)-1,2,3,6-tetrahydro-pyridin-4-yl]-5-phenyl-thiophene-2-carboxylic acid] | < 3 µM |
| CC1CCC(C2=C(c3cc(-c4ccc(/C=C/c5cscn5)cc4)sc3C(=O)O)CCN(C)C2)CC1 (centres unmarked) [Example 158, 3-[1-Methyl-5-(4-methyl-cyclohexyl)-1,2,3,6-tetrahydro-pyridin-4-yl]-5-[4-(2-thiazol-4-yl-vinyl)-phenyl]-thiophene-2-carboxylic acid] | > 10 µM |
